Experimental data published in article PMC11818225, “Multifaceted Sulfonamide-Derived Thiosemicarbazones: Combining Metal Chelation and Carbonic Anhydrases Inhibition in Anticancer Therapy” (International Journal of Molecular Sciences, 2025).
Entries after “also recorded” stand apart in the source; their conditions may differ. Read-outs that look alike come from different tables or passages of the source.

Assays:
[1] = tested on: A549 (non-small cell lung); experiment: Antiproliferative SBR assay (NCI protocol), A549; assay type: cell-based, human; conditions: Homo sapiens, A549; 48 h exposure, n = 3, mean ± SD
Source text: (§1) The latter two represent multidrug-resistant cell lines.

HBL-100 (breast) = experiment: Antiproliferative SBR assay (NCI protocol), HBL-100; assay type: cell-based, human; conditions: Homo sapiens, HBL-100; 48 h exposure, n = 3, mean ± SD
Source text: as §1

HeLa (cervix) = experiment: Antiproliferative SBR assay (NCI protocol), HeLa; assay type: cell-based, human; conditions: Homo sapiens, HeLa; 48 h exposure, n = 3, mean ± SD
Source text: as §1

T-47D (breast) = experiment: Antiproliferative SBR assay (NCI protocol), T-47D; assay type: cell-based, human; conditions: Homo sapiens, T47D; 48 h exposure, n = 3, mean ± SD; multidrug-resistant line
Source text: as §1

WiDr (colon) = experiment: Antiproliferative SBR assay (NCI protocol), WiDr; assay type: cell-based, human; conditions: Homo sapiens, WiDr; 48 h exposure, n = 3, mean ± SD; multidrug-resistant line
Source text: as §1

[2] = tested on: A549, HBL-100, HeLa, SW1573, T-47D, WiDr; experiment: Antiproliferative SBR assay, panel of six tumor cell lines (summary statements); assay type: cell-based; conditions: Homo sapiens
Source text: as §1

SW1573 cells = experiment: Label-free continuous live cell imaging (holotomographic 3D microscopy); assay type: cell-based, human; conditions: 20 μM, 20 h
Method: Live imaging allows researchers to observe progressive cytostatic effects or cell death of treated cells, enabling the identification of several apoptotic hallmarks. In order to characterize the phenotypic effects of the compounds 4a and 5b on cancer cells, the evolution of the culture was monitored every 3 min using label-free holotomographic 3D microscopy. SW1573 cells were exposed to 4a and 5b at a concentration of 20 μM for 20 h (Supplementary Material, videos S1–S3). Untreated SW1573 cells (control) moved freely and divided throughout the experimental time frame.
The CX-A imaging platform microscope (Nanolive SA, Lausanne, Switzerland) was used to measure refractive indices, creating a holotomographic 3D image of the cells. SW1573 cells were seeded onto 35 mm cell culture imaging dishes (IBIDI GmbH, Gräfelfing, Germany) at a density of 50.000 cells/well. On the next day, treated cells were exposed to the test compounds right before the acquisition of the images. Image data were transferred to FIJI software v2.9.0 (NIH, USA) for image analysis. EVE software v2.2.1.2162 (Nanolive S.A., Tolochenaz, Switzerland)) was used for the analysis of the refractive indices and calculation of the phenotypic parameters.

[3] = tested on: SW1573 (non-small cell lung)
Method: The potential antiproliferative activity of sulfonamides synthesized in this study was evaluated in vitro using the SBR assay, following the US NCI protocol. A panel of six tumor cell lines was employed: A549 (non-small cell lung), HBL-100 (breast), HeLa (cervix), SW1573 (non-small cell lung), T-47D (breast), and WiDr (colon). The latter two represent multidrug-resistant cell lines.
Cells were maintained in culture in 60 mm cell culture dishes in growth medium (10 mL) and passaged twice weekly.
The antiproliferative activity of compounds was tested using our implementation of the protocol of the National Cancer Institute (NCI) of the USA. The following seeding densities (cells per well) were used: 2500 (A549, HBL-100, HeLa, and SW1573) and 5000 (T-47D and WiDr). Stock solutions of inhibitors (40 mM) were prepared in pure DMSO (400 times the maximum test concentration).

[4] = Metal complexation assay by UV-Vis spectroscopy; assay type: physicochemical; conditions: DMSO, 25 °C
Method: The ability of 5b, as a model compound, to complex metal cations associated with tumorigenesis (Na^+, K^+, Fe^2+, Fe^3+, Zn^2+, and Cu^2+) was analyzed using UV–Vis spectroscopy. To investigate this, UV–Vis spectra of solutions with varying ratios of 5b to metal chlorides (1:0, 4:1, 2:1, 1:1, 1:2, 1:5) were recorded. Additionally, a 1:2 ligand-to-metal spectrum was obtained after 72 h of incubation to account for potential slow complexation. […] For ZnCl2, only a weak effect was observed after incubation, and no significant changes were detected without incubation, regardless of the ligand-to-Zn^2+ ratio (Figure 6C).
The complexation of 5b with different metal chlorides (NaCl, KCl, FeCl2, FeCl3, ZnCl2, and CuCl2) was investigated using UV–Vis spectroscopy (Jasco V-360). The stock solutions of the salts (10^−2 M) and the ligand (2.5 mM) were prepared in pure DMSO and sonicated when necessary. To 20 µL of a 2.5 mM solution of 5b were added different aliquots of the metal chlorides solutions up to a total volume of 2 mL in quartz cuvettes. The following ligand–metal ratios were used: 1:0.25, 1:0.5, 1:1, 1:2, 1:5, and 1:10. The absorbance was monitored at 25 °C in the range 280–440 nm, either with or without incubation. A blank solution without 5b was also prepared for each concentration of the salt, and its spectrum was subtracted from the ligand–salt spectrum.

human CA I = human CA I (Homo sapiens, UniProt P00915); experiment: Stopped-flow CO2 hydrase assay, CA I
human CA II = human CA II (Homo sapiens, UniProt P00918); experiment: Stopped-flow CO2 hydrase assay, CA II
human CA IX = human CA IX (Homo sapiens, UniProt Q16790); experiment: Stopped-flow CO2 hydrase assay, CA IX
human CA XII = human CA XII (Homo sapiens, UniProt O43570); experiment: Stopped-flow CO2 hydrase assay, CA XII
[5] = range over six tumor cell lines, read-out: GI50 range across all tested cell lines
[6] = read-out: GI50 in five out of six cell lines

Chain of human CA XII (O43570 25-354): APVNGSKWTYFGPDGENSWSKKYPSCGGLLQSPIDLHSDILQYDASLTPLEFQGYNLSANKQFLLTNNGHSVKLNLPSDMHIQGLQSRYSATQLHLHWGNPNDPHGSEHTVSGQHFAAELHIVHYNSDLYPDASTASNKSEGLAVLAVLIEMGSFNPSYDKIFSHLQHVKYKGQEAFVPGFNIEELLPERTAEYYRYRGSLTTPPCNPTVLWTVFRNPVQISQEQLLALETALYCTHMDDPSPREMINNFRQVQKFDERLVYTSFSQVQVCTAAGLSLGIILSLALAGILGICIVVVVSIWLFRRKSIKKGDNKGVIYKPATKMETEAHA
Chain of human CA I (P00915 whole entry): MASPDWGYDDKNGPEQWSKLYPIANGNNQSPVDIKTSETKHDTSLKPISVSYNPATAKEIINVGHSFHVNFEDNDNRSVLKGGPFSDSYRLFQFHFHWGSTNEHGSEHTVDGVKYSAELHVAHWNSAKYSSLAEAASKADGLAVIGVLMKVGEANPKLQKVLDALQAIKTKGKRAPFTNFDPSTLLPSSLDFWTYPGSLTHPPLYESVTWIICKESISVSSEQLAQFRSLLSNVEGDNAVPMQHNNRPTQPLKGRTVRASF

Structure (SMILES) | GI50 [1] | GI50 (HBL-100 (breast)) | GI50 (HeLa (cervix)) | GI50 (T-47D (breast)) | GI50 (WiDr (colon)) | GI50 [2, 5] | Phenotypic effects on cancer cells (SW1573 cells) | GI50 [3] | GI50 [2, 6] | other results
NS(=O)(=O)c1ccc(NC(=S)N/N=C/c2ccccc2)cc1 [Compound 4a, 1-Phenylmethylene-4-(4′-sulfonamidophenyl)-3-thiosemicarbazone] | 5.1 ± 3.7 µM | 3 ± 1.6 µM | 2.3 ± 0.2 µM | 2.6 ± 0.1 µM | 4.5 ± 1.4 µM | 2.3 to 5.1 µM | cell division was retarded and apoptotic features were observed in some cells | 2.9 ± 1.4 µM | – | –
NS(=O)(=O)c1ccc(NC(=S)N/N=C/c2ccccn2)cc1 [Compound 5a, 1-(Pyridin-2′-ylmethylene)-4-(4″-sulfonamidophenyl)-3-thiosemicarbazone] | 18 ± 2 µM | 5.2 ± 2.2 µM | 5.2 ± 0.3 µM | 5.7 ± 2.1 µM | 3.8 ± 0.3 µM | – | – | 4.2 ± 0.1 µM | < 10 µM | –
NS(=O)(=O)c1cccc(NC(=S)N/N=C/c2ccccn2)c1 [Compound 5b, 1-(Pyridin-2′-ylmethylene)-4-(3″-sulfonamidophenyl)-3-thiosemicarbazone] | 10 ± 2 µM | 7.8 ± 2 µM | 5.8 ± 0.4 µM | 5.3 ± 0.7 µM | 4.5 ± 0.6 µM | 4.5 to 10 µM | cell division was retarded and apoptotic features were observed in some cells; also recorded: delayed tumor cell division and features indicative of apoptosis | 7.1 ± 0.4 µM | < 10 µM | Chelation of Cu2+ ([4]; CuCl2 titration): efficiently chelated; also recorded: efficient ligand for chelating; also recorded: effective chelation; Chelation of Fe2+ ([4]; FeCl2 titration): efficiently chelated; also recorded: to a lesser extent; also recorded: effective chelation; Chelation of Fe3+ ([4]; FeCl3 titration): efficiently chelated; also recorded: to a lesser extent; Chelation of K+ ([4]; KCl titration): does not chelate; Chelation of Na+ ([4]; NaCl titration): does not chelate; Chelation of Zn2+ ([4]; ZnCl2 titration): notably weaker; Ki (human CA I): 538 nM; Ki (human CA II): 2.5 nM; Ki (human CA IX): 4.9 nM; Selectivity Ratio I/IX (human CA IX; Ki CA I / Ki CA IX): 109.8; Selectivity Ratio II/IX (human CA IX; Ki CA II / Ki CA IX): 0.49; Ki (human CA XII): 5.6 nM; Selectivity Ratio I/XII (human CA XII; Ki CA I / Ki CA XII): 96.1
